Data from US5506354A, “Imidazolylpiperazinyl steroids” (The Upjohn Company, priority 1992, dated 1996).
Counter-ions that a name gives are not always drawn.

Legend:
[1] = tested on: arachidonic acid; experiment: Arachidonic Acid Antagonism Assay (AAAA), LD50 of sodium arachidonate; format: in vivo, Charles River male CF-1 mice; settings: for arachidonic acid antagonism (activity in words): test compound IV 15 min before sodium arachidonate, LD50 outside 95% confidence interval of control
Experimental: Since these metabolites contribute to the pathological problems associated with stroke, spinal trauma and head injury, compounds which antagonize arachidonic acid are useful in treating stroke, spinal trauma and head injury.
While not necessary to determine arachidonic acid antagonism, the above assay has been modified as follows: Charles River male CF-1 mice weighing 18-22 g are treated IV with the test compound dissolved in 1.0% Tween-80 and 0.1% hydrochloric acid in distilled water, 0.2 ml total volume. Fifteen minutes later sodium arachidonate (90% pure) in physiological (normal) saline is injected into the tail vein. The LD50 is measured using the Spearman-Karber method with a log dose interval of 0.05 (N=6). Compounds which elevate the LD50 outside of the 95% confidence interval of the control LD50 are considered to be "active".

[2] = tested on: MDA formation; experiment: Malonyldialdehyde (MDA) Formation Assay (rat brain synaptosomes); format: biochemical; settings: 10 min at 37°, pH 7.0; active = 50% or more at 200 μM or less
Experimental: Since lipid peroxidation is involved in the pathophysiology of center nervous system trauma, compounds which inhibit MDA formation are useful in treating the conditions listed below.
While not necessary to determine MDA formation, the above assays have been modified as follows: rat brain synaptosomes are prepared as described in the Example about the conjugated diene assay, except that the final wash of the synaptosomes and final suspension are in physiological (normal) saline in which the pH has been adjusted to 7.0. The synaptosomes are incubated for 10 min at 37° in physiological (normal) saline pH 7.0 (total volume=100 ul) containing; 10 ul synaptosomal suspension, 10% DMSO plus or minus drug, 150 uM Fe^+++ and 50 uM Fe++. The incubation is started by the rapid addition of iron to the otherwise complete reaction. The iron solutions are prepared fresh as ferric chloride and ferrous ammonium sulfate in argon-purged water. Following the 10 min incubation, the reaction is stopped by the addition of 500 ul ice-cold 12% trichloroacetic acid prepared in 0.5N hydrochloric acid. Water (300 ul) is then added along with 100 ul of freshly prepared thiobarbituric acid (3.3% in 0.5N sodium hydroxide) and 10 ul of 5 mM desferrioxamine. The sample is then heated in a boiling water bath for 20 minutes. The samples are cooled and centrifuged for 15 minutes at 1500×g and the absorbence of the supernatant fraction is read at 532 nm. The % inhibition of MDA formation is calculated by dividing the absorbance of sample containing drug by the absorbence of samples incubated without drug. Reaction blanks are samples incubated in the absence of iron. A compound that inhibits MDA formation by 50% or more at a concentration of 200 μM or less is considered "active".

[3] = tested on: conjugated diene formation; experiment: Conjugated Diene Formation Assay (rat brain synaptosomes); format: biochemical; settings: 100 μM (or less) of drug; active = inhibition by 50% or more
Source text: The formation of conjugated dienes as assayed by Braughler, J. Neurochem., 44, 1282 (1985), Bucher, Fund. Applied Tox., 3, 222 (1983) and Tein, Arch. Biochem. Biophy., 216, 142 (1982) is a standard pharmacological laboratory procedure useful for identifying compounds which inhibit lipid peroxidation. Since lipid peroxidation is involved in the pathophysiology of central nervous system trauma, compounds which inhibit conjugated diene formation are useful in treating the conditions listed below.
44, 1282 (1985). Synaptosomal suspension (10 μl) is added to 1 ml of physiological (normal) saline containing 1% Lubrol PX (Sigma Chemical Co. St. Louis, Mo.), 100 μM hydrogen peroxide and 100 μM (or less) of the drug to be tested prepared in either absolute ethanol or water depending upon solubility. The reaction is started by the rapid addition of 200 μM ferrous ammonium sulfate prepared in argon-purged water. The sample is rapidly mixed and the change in absorbence at 232 nm is followed in a Gifford Response Spectrophotometer equipped with a rapid sampler. Due to the rapidity of the reaction, rapid addition of the iron, rapid mixing and sampling are obligatory to the accuracy of the assay. For best results absorbence readings of one/sec should be started within 5 sec following the addition of iron. The initial linear rate of absorbence change during the first 30 sec of reaction are compared with the rate of a reaction containing all reagents except synaptosomes. The difference in rates is the rate of conjugated diene formation. Rates with drug are compared to rates obtained in the absence of drug and the % inhibition is calculated. A compound that inhibits conjugated diene formation by 50% or more is considered to be "active".

[4] = tested on: mucous secretion; experiment: Inhibition of mucous secretion assay of Johnson; settings: for inhibition of mucous secretion (activity in words): induced mucous secretions; for preferred mucous inhibitors by the test results (in words): test results disclose
Source text: According to this procedure compounds which inhibit or block enhancement of induced mucous secretions when tested are considered to be "active".

[5] = tested on: angiogenesis; experiment: Chick embryo assay of Folkman (inhibition of angiogenesis / tumor growth); format: in vivo; settings: 50 μg/10 μl in the presence of heparin
Experimental: According to this procedure compounds which are considered to be "active" (i.e. antiangiogenic) give an avascular zone of 4 mm or greater in some embryos when tested at 50 μg/10 μl in the presence of 50 μg/10μ of heparin.

[6] = tested on: interleukin-1; experiment: Inhibition of interleukin-1 induced T cell proliferation; format: cell-based; settings: for inhibition of interleukin 1 (activity in words): active = greater than 30% at 10^-6 M
Source text: The inhibition of interleukin-1 induced T cell proliferation assay, Proc. Nat. […] Since people with arthritis make excess interleukin 1, compounds which inhibit the activity of interleukin 1 are useful in the treatment of arthritis. According to this procedure compounds which inhibit the activity of interleukin 1 greater that 30% at 10^-6 M are considered to be "active".

Row | SMILES | arachidonic acid antagonism (activity in words) [1] | inhibition of MDA formation (activity in words) [2] | inhibition of conjugated diene formation (activity in words) [3] | inhibition of mucous secretion (activity in words) [4] | inhibition of interleukin 1 (activity in words) [6] | also measured
1 | C[C@]12CCC(=O)C=C1CC[C@@H]1C2=CC[C@@]2(C)[C@H]1CC[C@]2(O)C(=O)CN1CCN(c2cccc(N3CCCC3)n2)CC1 [Example 62, 17α-hydroxy-21-[4-[6-(1-pyrrolidinyl)-2-pyridinyl]-1-piperazinyl] pregna-4,9(11)-diene-3,20-dione (E)-2-butenedioate (1:1) salt] | demonstrate arachidonic acid antagonism | demonstrate such activity | – | – | – | % of Control LD50 100 mg/kg ([1]; 100 mg/kg, test compound IV): 138%
2 | CC(CN1CCN(c2cc(N3CCCC3)nc(N3CCCC3)n2)CC1)[C@H]1CC[C@H]2[C@@H]3CCC4=CC(=O)C=C[C@]4(C)[C@H]3CC[C@]12C.CS(=O)(=O)O.O (some centres unmarked) [Example 112, 21-[4-(2,6-Bis(1-pyrrolidinyl)-4-pyrimidinyl)-1-piperazinyl]-20-methylpregna-1,4-dien-3-one methanesulfonate, hydrate] | – | – | demonstrate such activity | – | – | –
3 | CS(=O)(=O)O.C[C@]12CCC(=O)C=C1CC[C@@H]1C2=CC[C@@]2(C)[C@H]1CC[C@]2(O)C(=O)CN1CCN(c2ccccn2)CC1 [Example 2, 17α-Hydroxy-21-[4-(2-pyridinyl)-1-piperazinyl]pregna-4,9(11)-diene-3,20-dione methanesulfonate] | demonstrate arachidonic acid antagonism | – | demonstrate such activity | demonstrate such activity | – | preferred mucous inhibitors by the test results (in words) [4]: preferred mucous inhibitors; % of Embryos with 4 mm or Greater Avascular Zone [5]: 85%
4 | C[C@H]1C[C@@H]2C(=CC[C@@]3(C)[C@H]2CC[C@]3(O)C(=O)CN2CCN(c3cc(N4CCCC4)nc(N4CCCC4)n3)CC2)[C@@]2(C)C=CC(=O)C=C12 [Example 47, 17α-hydroxy-6α-methyl-21-[4-[2,6-bis(1-pyrrolidinyl)-4-pyrimidinyl]-1-piperazinyl]pregna-1,4,9(11)-triene-3,20-dione (E)-2-butenodioate salt] | demonstrate arachidonic acid antagonism | demonstrate such activity | demonstrate such activity | – | demonstrate inhibition of interleukin 1 | –
5 | C[C@@H]1C[C@H]2[C@@H]3CCC4=CC(=O)C=C[C@]4(C)C3=CC[C@]2(C)[C@H]1C(=O)CN1CCN(c2cc(N3CCOCC3)nc(N3CCOCC3)n2)CC1 [Example 86, 16α-methyl-21-[4-[2,6-bis(4-morpholino)-4-pyrimidinyl]-1-piperazinyl]-pregna-1,4,9(11)-triene-3,20-dione] | – | demonstrate such activity | demonstrate such activity | – | demonstrate inhibition of interleukin 1 | % Inhibition at 10^-6 M ([6]; interleukin 1, 10^-6 M): 84%; inhibition of angiogenesis (activity in words) [5]: demonstrate inhibition of angiogenesis
6 | C[C@]12CCC(=O)C=C1CC[C@@H]1C2=CC[C@@]2(C)[C@H]1CC[C@]2(O)C(=O)CN1CCN(c2cc(N3CCOCC3)nc(N3CCOCC3)n2)CC1 [Example 105, 21-[4-(2,6-Bis(4-morpholino)-4-pyrimidinyl)-1-piperazinyl]-17α-hydroxypregna-4,9(11)-diene-3,20-dione dihydrochloride, hydrate] | – | – | – | demonstrate such activity | demonstrate inhibition of interleukin 1 | preferred mucous inhibitors by the test results (in words) [4]: preferred mucous inhibitors; inhibition of angiogenesis (activity in words) [5]: demonstrate inhibition of angiogenesis
7 | C[C@@H]1C[C@H]2[C@@H]3CCC4=CC(=O)C=C[C@]4(C)[C@H]3[C@H](O)C[C@]2(C)[C@H]1C(=O)CN1CCN(c2cc(N3CCCC3)nc(N3CCCC3)n2)CC1 [Example 84, 11α-hydroxy-16α-methyl-21-[4-[2,6-bis(1-pyrrolidinyl)-4-pyrimidinyl]-1-piperazinyl]pregna-1,4-diene 3,20-dione] | – | – | demonstrate such activity | – | demonstrate inhibition of interleukin 1 | –
8 | CCN(CC)c1cc(N2CCN(CC(=O)[C@@]3(O)CC[C@H]4[C@@H]5CCC6=CC(=O)CC[C@]6(C)C5=CC[C@@]43C)CC2)nc(N)n1 [Example 4, 21-[4-[2-Amino-6-(diethylamino)-4-pyrimidinyl]-1-piperazinyl]-17α-hydroxypregna-4,9(11)-diene-3,20-dione] | demonstrate arachidonic acid antagonism | – | demonstrate such activity | demonstrate such activity | – | –
9 | C[C@]12C=CC(=O)C=C1CC[C@@H]1C2=CC[C@]2(C)[C@@H](C(=O)CN3CCN(c4cc(N5CCCC5)nc(N5CCCC5)n4)CC3)CC[C@@H]12.Cl.Cl [Example 111, 21-[4-(2,6-Bis(1-pyrrolidinyl)-4-pyrimidinyl)-1-piperazinyl]pregna-1,4,9(11)-triene-3,20-dione dihydrochloride] | – | – | demonstrate such activity | – | – | –
10 | C[C@]12CCC(=O)C=C1CC[C@@H]1C2=CC[C@@]2(C)[C@H]1CC[C@]2(O)C(=O)CN1CCC(O)(c2ccc(C(F)(F)F)cc2)CC1 [Example 5, 17α-Hydroxy-21-[4-hydroxy-4-(4-trifluoromethyl)-phenyl-1-piperidinyl]-pregna-4,9(11)-diene-3,20-dione] | – | – | demonstrate such activity | – | – | –
